According to a melting point compilation (Tetko et al.; mined from patent text by program, amines drawn as free bases though some values may be those of a salt):

melting point [°C] | SMILES
157 to 159 | CCCc1nn(C)c2c(=O)[nH]c(-c3cc(Br)ccc3OCC)nc12
178 to 182 | CS(=O)(=O)Nc1ccc(NC(=O)C(=O)N2CCC(Cc3ccc(F)cc3)CC2)cc1
222 to 224 | Cc1ccccc1C=C1CCn2c1nc1ccc(CO)cc1c2=O
130 to 132 | O=C1CC2CCCC3(C2)c2cccn2CCN13 (stereo not drawn)
128 to 131 | COc1ccc(Nc2cc(C)nc(SCC#N)n2)cc1
245 | CN1CCN(c2c(F)c(F)c3c(=O)c(C(=O)O)cn(C4CC4)c3c2F)CC1
200 to 201 | CSc1cc2n(c1C(=O)c1ccc(Cl)cc1)CCC2C(=O)O (stereo not drawn)
> 260 | CNC(=O)Cc1ccc2c(c1)Cc1c-2[nH]c(=O)c2nccn12
115 to 117 | CS(=O)(=O)N1CCSc2cccc(F)c2C1
153 to 155 | COC(=O)c1cc(N2CCN([C@H]3CC[C@@H](c4cn(C)c5ccc(C#N)cc54)CC3)CC2)c2ncccc2c1
> 210 | COc1cc(Br)nc2[nH]cc(C(C)=O)c12
213 to 214 | Cc1cc(OCc2ccc(-c3ccccc3C(=O)O)cc2)c2ncccc2n1
180 to 185 | CC(=O)NC[C@H]1CN(c2cc(F)c(N3CCC(n4nnc(N5CCNCC5)n4)CC3)c(F)c2)C(=O)O1
187 to 190 | CCCNc1nc2ccccn2c(=O)c1-c1ccc(NC2CCN(C(=O)OC(C)(C)C)C2)cc1 (stereo not drawn)
125 to 127 | CCCCc1nn(-c2cc([N+](=O)[O-])ccc2Br)c(=O)[nH]1
294 to 296 | O=C(O)COc1ccccc1N1CCN(c2ccncc2)CC1
164 to 167 | Cc1nn(-c2ccc(Cl)nn2)c(C)c1[N+](=O)[O-]

melting point [°C] | SMILES
100 to 102 | CC(Oc1ccc(F)cc1)c1ccnc2ncnn12 (stereo not drawn)
120 | OCCC1(c2ccccc2)CCNCC1
177 to 179 | CSc1ncnc2c(N3CCSCC3)nc(N3CCNCC3)nc12
128 to 131 | COc1ccc(Nc2cc(Cl)nc(SC)n2)cc1
> 300 | Cc1cc(C)c(C)c(-c2cc3cnc(N)nc3nc2NC(=O)NC(C)(C)C)c1C
195 to 200 | FC(F)(F)CCN1CCN(Cc2ccc3c(c2)-c2[nH]nc(-c4ccsc4)c2C3)CC1
154 to 155 | N#Cc1cc(N)ccc1N1CCC(OC(=O)c2ccccc2)CC1
210 to 212 | CCN1C(=O)CCCc2ccc(Nc3ncc(Cl)c(Nc4c(C)cccc4C(=O)NC)n3)cc21
248 to 250 | Cc1nc2c(c3c1[nH]c1cc(Cl)ccc13)C(=O)CC(C)(C)C2
200 | O=C1CCC(C(=O)c2ccc(C3CCCCC3)cc2)N1 (stereo not drawn)
> 250 | CC(=CCc1c(C)nc(N)nc1O)c1cc(Cl)ccc1Cl
148 to 149 | CCCCCS(=O)(=O)NC(=O)c1ccc2nc(C)n(Cc3ccc(N(C)CC)cc3Cl)c2n1
129 to 131 | O=C(c1cc2ccccc2o1)C12CC3CC(CC(C3)C1)C2
207 to 208 | O=C(Nc1cnc(N2CCCC2)cc1C(F)(F)F)c1cc2cc(C(F)(F)F)cnc2n1Cc1cccc(F)c1
250 | CN(C)c1cc(C(=O)O)ncn1
166 to 167 | Cc1nc(N)c2nc(C)n(CCCCCS(=O)(=O)c3ccccc3)c2c1C

The next lines start with the compound.

SMILES | melting point [°C]
O=C(O)CCCCCCNC(=O)C1Cc2ccccc2N1S(=O)(=O)c1ccc(-c2cccc(C(F)(F)F)c2)cc1 (stereo not drawn) | 65 to 70
Cn1cccc1C(=O)Nc1cccc(C=CC(=O)N2CC(CCl)c3ccc([N+](=O)[O-])cc32)c1 (stereo not drawn) | 215
COC1(c2ccccc2)N=CC(=O)N(C)c2ccc([N+](=O)[O-])cc21 (stereo not drawn) | 163 to 164
COC(=O)C1CC(O)C(=O)N1 (stereo not drawn) | 85 to 86
O=C(Nc1ccc(F)cc1)c1ccc(OC(F)(F)F)c(Nc2cccc(C(F)(F)F)c2)c1 | 143 to 144
IC=CC(CC1CCCC1)OC(c1ccccc1)(c1ccccc1)c1ccccc1 (stereo not drawn) | 87 to 88
N#Cc1nc(Cl)sc1Cl | 56.5 to 57
CC(CCC(=O)C(C)(C)OO)C1CCC2C3CC=C4CC(OC5CCCCO5)CCC4(C)C3CCC12C (stereo not drawn) | 130 to 131
COc1ccccc1Oc1c(NS(=O)(=O)c2ccc(C(C)(C)C)cc2)nc(-c2ncccn2)nc1OCCOc1ncc(-c2ccccn2)cn1 | 149 to 157
C#CCSC(=S)N(C)C | 57 to 59
CCS(CCO)=NS(=O)(=O)c1ccccc1 (stereo not drawn) | 75 to 76.5
CC(=O)OC1CSC(Oc2cncc(-c3ccoc3)c2)C(OC(C)=O)C1OC(C)=O (stereo not drawn) | 127
CCc1ccc(NC(=O)c2cc(C(C)(C)C)ccc2S)cc1 | 150 to 151
O=C(O)Cc1cccc(OCCCNCC(c2ccccc2)c2ccccc2)c1 | 49.1
O=C(O)c1c(Br)ccc(OC(F)(F)F)c1F | 112
CC(C)CC(=O)c1c(-c2ccc3cc(O)cc(Br)c3c2)oc2ccccc12 | 160 to 161
COc1cc(OCc2cccnc2)ccc1/C=C/c1cc(/C=C/c2ccc3[nH]ccc3c2)n[nH]1 | 127 to 135
CC(C)[C@H](NC(=O)[C@H](CC(=O)OC(C)(C)C)NC(=O)CCCN)C(=O)OC(C)(C)C | 99 to 100
CC(=O)N(C)Cc1ccc2c(c1)C(Cc1ccnc(F)c1)(Cc1ccnc(F)c1)c1ccccc1-2 | 136 to 137
ClCCOc1ccc(Cl)c2[nH]ccc12 | 68 to 72
Fc1ccc(Nc2nnc(Cc3ccncc3)c3ccccc23)cc1 | 129 to 131
COCC(=O)Nc1c(C(=O)c2cccc(C)c2)[nH]c2ccc([N+](=O)[O-])cc12 | 155 to 157

SMILES | melting point [°C]
O=C1c2c(Cl)cccc2-n2cnc(-c3nnco3)c2[C@@H]2CCCN12 | 229 to 230
CC(=O)SC(C)CNC(=O)c1cc(Cl)cc(C)c1NC(=O)c1cc(C(F)(F)F)nn1-c1ncccc1Cl (stereo not drawn) | 137 to 139
C[C@H]1[C@H](Oc2cccc(C(F)(F)F)c2)CN1C(N)=O (relative stereo) | 107 to 108
CN(c1ccc(O)cc1)c1cc2ccc(F)cc2c(O)n1 | 249
COc1cccc2oc(-c3ccc(Cl)cc3)cc(=O)c12 | 171 to 172
CCCc1nc(C(C)(O)CC)c(C#N)n1C(c1ccccc1)(c1ccccc1)c1ccccc1 (stereo not drawn) | > 120
CCOC(=O)C1=Cc2cccc(S(N)(=O)=O)c2OCC1 | 197 to 198
Cc1csc(C)c1S(N)(=O)=O | 135
CC(C)c1cn2ccccc2c1S(=O)(=O)c1ccc(OCCCN(C)C)cc1 | 90 to 92
CCCCCOc1ccc(-c2ccc(-c3ccc(C(=O)OC)cc3)cc2)cc1 | 248
Nc1c(Cl)cc(C(O)CNCCCCCCOCCCCCCc2cncnc2)cc1Cl (stereo not drawn) | 59 to 60
COc1ccc(C2(C)Cc3cc(OCC(=O)O)c(Cl)c(Cl)c3C2=O)cc1 (stereo not drawn) | 173 to 175
COc1cc(CC(=O)O)ccc1OCc1nc(-c2ccccc2)oc1C | 176 to 177
CC1COC(c2nsc3ccc(-n4c(=O)cc(C(F)(F)F)n(C)c4=O)cc23)O1 (stereo not drawn) | 81 to 83
CCc1cc2oc3cc(-c4ccccc4Cl)c4c(c3c2cc1OC)C(=O)NC4=O | 252 to 257
CN(CCc1ccccc1)c1ssc(=O)c1Cl | 75
CCCCCCCCCCCCCCCCCCOCC(COC(c1ccccc1)(c1ccccc1)c1ccccc1)OC(=O)N(C)C (stereo not drawn) | 57.5 to 58
Cc1nc2cc3c(cc2nc1C(=O)OC(C)(C)C)OC(C)(C)O3 | 104 to 105
CC1CC2C3CCC4CC(O)CCC4(C)C3C(=O)CC2(C)C1C1(C)OCCO1 (stereo not drawn) | 122 to 124
O=C(NCCOc1ccc(CC(Oc2ccccc2)C(=O)O)cc1)c1ccc(-c2ccccn2)cc1 (stereo not drawn) | 149 to 151
Cc1nnc2n1-c1ccc(C#C[Si](C)(C)C)cc1C(c1ccccc1)=NC2 | 229 to 233
ClCc1coc(-c2ccc(Cl)o2)n1 | 107 to 108

SMILES | melting point [°C]
CC(C)(C)NC(=O)c1ccncc1 | 115 to 117
CCCN=C(NC#N)NCCSCc1[nH]cnc1C | 108 to 110
COc1cc(C(=O)c2cnc3ccccc3c2)ccc1OCc1ccccc1 | 110 to 111
CS(=O)(=O)c1ccc(C(CC2CCCC2)C(=O)Nc2nccs2)cc1C(F)(F)F (stereo not drawn) | 117 to 121
CS(=O)(=O)c1cccc(C(=O)Nc2cc(C(=O)NCc3ccccc3)ccn2)c1 | 170 to 171
CC1(C)OC(=O)Nc2ccc(-c3ccc(C#N)n3CC(=O)O)cc21 | 207 to 209
COc1ccc(F)cc1C(C)(C)CC(=O)C(=O)Nc1ccc2c(=O)onc(C)c2c1 | 171 to 173
NC1=C(c2cccc(C(F)(F)F)c2)C(=O)OC1 | 165
CNC(=O)c1cccc2c(-c3ccccc3)c([N+](=O)[O-])oc12 | 167 to 169
O=[N+]([O-])c1ccc(Oc2ccc(S(=O)(=O)c3ccc(Oc4ccc([N+](=O)[O-])c(O)c4)cc3)cc2)cc1O | 220 to 222
Cn1nc(C(F)(F)F)cc1Oc1nc(Oc2cc(C(F)(F)F)nn2C)c(F)c(Oc2cc(C(F)(F)F)nn2C)c1F | 119
O=C(O)Cc1cccc(C(=O)c2ccc(OCc3ccc4ccccc4n3)cc2)c1 | 146 to 147
O=C(O)c1cc(-c2ccccc2S(=O)(=O)Cl)c2ccc3c(-c4ccccc4S(=O)(=O)Cl)cc(C(=O)O)nc3c2n1 | > 300
CCOC(=O)/C=C/c1c(-c2ccc(F)cc2)n(C(C)C)c(=O)c2ccccc12 | 167 to 169
CCCCOCCOc1ccc(-c2ccc3c(c2)C=C(C(=O)Nc2ccc(/C(Cc4nccn4CCC)=N/OC)cc2)CCN3CC(C)C)cc1 | 159 to 161
O=C(O)CCC(=NOCc1ccc(OCc2ccccc2)cc1)c1ccccc1 | 86 to 87
CNC(=O)c1cccnc1C | 69 to 72
N=C(N)c1ccc(O)cc1 | 160
COc1c(Cl)cc(NC(C)=O)c(OC)c1N | 113
COc1ccc(CCNC(=O)C(N)=O)cc1OC1CCCC1 | 175 to 176
Cc1cc(-c2nnc(C(C)(C)C)o2)ccc1N=CN(C)C | 79 to 80
